The values that follow are results of earlier work, collected in patent US20140105862A1, “STREPTOMYCES MICROFLAVUS STRAINS AND METHODS OF THEIR USE TO CONTROL PLANT DISEASES AND PESTS” (priority 2012, published 2014).

Structures are written as SMILES.

In data set [1] the test system is parasites on animals, such as pin worm. Particulars: according to U.S. Pat. No. 3,849,398.
The test system of data set [2] is gram-positive, gram-negative bacteria and tubercule bacillus. Particulars: according to U.S. Pat. No. 3,849,398.
For data set [3], the system named is powdery mildew. Particulars: according to GB 1 507 193.

Turning to `CNCC(=O)NC(CO)C(=O)NC1C(C(N)=O)OC(n2ccc(N)nc2=O)C(O)C1O` (stereo not drawn) [gougerotin], the parasiticidal action result in data set [1] is on record as “parasiticidal action”. For the same compound, the antibacterial activity result in data set [2] was “weak antibacterial activity”.

As to `NC(N)=NCC(O)CC(O)(C(=O)O)[C@H]1O[C@@H](n2cc(CO)c(N)nc2=O)C=C[C@@H]1NC(=O)[C@@H](N)CO` (stereo partly drawn) [Strain B-98891], the antifungal activity entry in data set [3] is listed as “antifungal activity”.
